Source: PMC4038709 (Bioorganic & medicinal chemistry, 2014)

Columns and labels:
SET7 [1] = molecular target: T1, SET7 (Homo sapiens, UniProt Q8WTS6); test: SET7 ELISA methylation assay; format: biochemical; settings: for relative potency against SET7 (SAR, in words): comparison with parent analog, ELISA 40 µM (Fig. 3); for inhibition at 40 µM: read-out: inhibition of SET7
T1 sequence (Q8WTS6 52-366): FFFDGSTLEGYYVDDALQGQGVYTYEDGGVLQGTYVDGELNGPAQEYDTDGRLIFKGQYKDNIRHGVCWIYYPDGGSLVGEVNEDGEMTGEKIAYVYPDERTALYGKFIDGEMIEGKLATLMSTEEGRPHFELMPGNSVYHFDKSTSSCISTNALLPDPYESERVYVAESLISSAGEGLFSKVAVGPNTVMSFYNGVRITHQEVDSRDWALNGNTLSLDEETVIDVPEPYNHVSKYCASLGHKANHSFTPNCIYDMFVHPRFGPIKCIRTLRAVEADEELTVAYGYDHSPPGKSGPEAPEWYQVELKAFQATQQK

SET7 [2] = molecular target: T1, SET7; test: SET7 scintillation proximity assay; format: biochemical; settings: SPA, 50 µM and 15 µM inhibitor, comparison with 19 (Fig. 4)

Row | SMILES | relative potency against SET7 (SAR, in words) (SET7 [1]) | inhibition at 40 µM (SET7 [1]) [%] | relative potency against SET7 (SAR, in words) (SET7 [2])
1 | O=C(O)c1cccc(SCc2cccc(-n3ccc4c(Br)cccc43)c2)c1 [Compound 12, 3-(3-(4-bromo-1H-indol-1-yl)benzylthio)benzoic acid] | increased potency |  | 
2 | O=C(O)c1cccc(NCc2cccc(-n3ccc4c(-c5ccccc5)cccc43)c2)c1 [Compound 14, 3-(3-(4-phenyl-1H-indol-1-yl)benzylamino)benzoic acid] |  | 50 to 60 | 
3 | O=C(O)c1cccc(SCc2cccc(-n3ccc4cc(Br)ccc43)c2)c1 [Compound 11, 3-(3-(5-bromo-1H-indol-1-yl)benzylthio)benzoic acid] | more potent inhibitors of SET7 than 7 |  | 
4 | O=C(O)c1cccc(CNc2cccc(-n3ccc4c(-c5ccc(C(F)(F)F)cc5)ncnc43)c2)c1 [Compound 25] |  |  | reduced inhibitor potency
5 | O=C(O)CCCSCc1cccc(-n2ccc3cc(Br)ccc32)c1 [Compound 10, 4-(3-(5-bromo-1H-indol-1-yl)benzylthio)butanoic acid] | more potent inhibitors of SET7 than 7 |  | 
6 | O=C(O)c1cccc(SCc2cccc(-n3ccc4c(-c5ccccc5)cccc43)c2)c1 [Compound 13, 3-(3-(4-phenyl-1H-indol-1-yl)benzylthio)benzoic acid] | even more effective | 50 to 60 | 
7 | O=C(O)c1cccc(NCc2ccc(-n3ccc4c(-c5ccc(C(F)(F)F)cc5)ncnc43)s2)c1 [Compound 26] |  |  | reduced inhibitor potency
8 | O=C(O)c1ccc(-c2cccc3c2ccn3-c2cccc(CNc3cccc(C(=O)O)c3)c2)cc1 [Compound 15, 3-(3-(4-(4-carboxyphenyl)-1H-indol-1-yl)benzylamino)benzoic acid] | greatly suppressed activity |  | 
